According to paper PMC12209991 (Clinical Pharmacology in Drug Development, 2025):
“Also recorded” adds a separate entry of the source.

Experiments:
Format in all cases: in vivo, human
[1] = Single ascending dose (SAD) pharmacokinetics in healthy volunteers; settings: human, plasma, po, plasma
Description: (§1) Analytes were separated by HPLC on a Waters Atlantis T3 analytical column using a gradient mobile phase (mobile phase A: 10% acetonitrile, 90% water, 10 mM ammonium acetate, 0.3% formic acid; mobile phase B: 90% acetonitrile, 10% water, 10 mM ammonium acetate, 0.3% formic acid) run at 0.4 mL/min with initial mobile phase B concentration of 30%.

[2] = Pantoprazole (PPI) effect on RBN-3143 pharmacokinetics, cross-over; settings: for AUC(0-inf) / AUC(0-t) / Cmax: human, plasma, po, single 500 mg oral dose
Description: as §1

[3] = Food effect (high-fat breakfast) on RBN-3143 pharmacokinetics, cross-over; settings: single 500 mg oral dose; for Tmax / AUC(0-inf) / AUC(0-t) / Cmax: human, plasma, po, 500 mg; for Tmax: read-out: Median Tmax
Description: as §1

Cmax ([1]; 150 mg, single oral dose 150 mg, read-out: Cmax, mean (SD)): 668 ng/mL
Tmax ([1]; 150 mg, single oral dose 150 mg, read-out: Tmax, median [min-max]): 2 h
AUC(0-inf) ([1]; 300 mg, single oral dose 300 mg, read-out: AUCinf, geometric mean (Geo CV%)): 6230 ng·h/mL
AUC(0-inf) ([1]; 300 mg, single oral dose 300 mg, read-out: AUCinf, mean (SD)): 6440 ng·h/mL
Cmax ([1]; 300 mg, single oral dose 300 mg, read-out: Cmax, geometric mean (Geo CV%)): 747 ng/mL
Cmax ([1]; 300 mg, single oral dose 300 mg, read-out: Cmax, mean (SD)): 771 ng/mL
Tmax ([1]; 300 mg, single oral dose 300 mg, read-out: Tmax, median [min-max]): 2 h
AUC(0-inf) ([1]; 600 mg, single oral dose 600 mg, read-out: AUCinf, geometric mean (Geo CV%)): 11700 ng·h/mL
AUC(0-inf) ([1]; 600 mg, single oral dose 600 mg, read-out: AUCinf, mean (SD)): 11900 ng·h/mL
Cmax ([1]; 600 mg, single oral dose 600 mg, read-out: Cmax, geometric mean (Geo CV%)): 1200 ng/mL
Cmax ([1]; 600 mg, single oral dose 600 mg, read-out: Cmax, mean (SD)): 1240 ng/mL
Tmax ([1]; 600 mg, single oral dose 600 mg, read-out: Tmax, median [min-max]): 1.75 h
AUC(0-inf) ([1]; 1000 mg, single oral dose 1000 mg, read-out: AUCinf, geometric mean (Geo CV%)): 16500 ng·h/mL
AUC(0-inf) ([1]; 1000 mg, single oral dose 1000 mg, read-out: AUCinf, mean (SD)): 17700 ng·h/mL
Cmax ([1]; 1000 mg, single oral dose 1000 mg, read-out: Cmax, geometric mean (Geo CV%)): 1460 ng/mL
Cmax ([1]; 1000 mg, single oral dose 1000 mg, read-out: Cmax, mean (SD)): 1500 ng/mL
Tmax ([1]; 1000 mg, single oral dose 1000 mg, read-out: Tmax, median [min-max]): 2.02 h
Tmax ([1]; SAD, oral, across doses 25-1000 mg, read-out: Tmax (time of peak concentrations)): 2 h
AUC(0-inf) ([2]; 500 mg, fasted without pantoprazole, N=12, linear mixed-effects model, read-out: AUCinf, GLSM): 13300 ng·h/mL
AUC(0-t) ([2]; 500 mg, fasted without pantoprazole, N=12, linear mixed-effects model, read-out: AUClast, GLSM): 12800 ng·h/mL
Cmax ([2]; 500 mg, fasted without pantoprazole, N=12, linear mixed-effects model, read-out: Cmax, GLSM): 1530 ng/mL
AUC(0-inf) ([2]; 500 mg, fasted without pantoprazole, read-out: AUCinf, geometric mean (Geo CV%)): 13300 ng·h/mL
AUC(0-inf) ([2]; 500 mg, fasted without pantoprazole, read-out: AUCinf, mean (SD)): 13800 ng·h/mL
AUC(0-t) ([2]; 500 mg, fasted without pantoprazole, read-out: AUClast, geometric mean (Geo CV%)): 12800 ng·h/mL
AUC(0-t) ([2]; 500 mg, fasted without pantoprazole, read-out: AUClast, mean (SD)): 13300 ng·h/mL
Cmax ([2]; 500 mg, fasted without pantoprazole, read-out: Cmax, geometric mean (Geo CV%)): 1530 ng/mL
Cmax ([2]; 500 mg, fasted without pantoprazole, read-out: Cmax, mean (SD)): 1600 ng/mL
AUC(0-inf) ([2]; fasted with pantoprazole 40 mg QD, N=12, linear mixed-effects model, read-out: AUCinf, GLSM): 13800 ng·h/mL
AUC(0-t) ([2]; fasted with pantoprazole 40 mg QD, N=12, linear mixed-effects model, read-out: AUClast, GLSM): 13400 ng·h/mL
Cmax ([2]; fasted with pantoprazole 40 mg QD, N=12, linear mixed-effects model, read-out: Cmax, GLSM): 1560 ng/mL
AUC(0-inf) ([2]; fasted with pantoprazole 40 mg QD, read-out: AUCinf, geometric mean (Geo CV%)): 13300 ng·h/mL
AUC(0-inf) ([2]; fasted with pantoprazole 40 mg QD, read-out: AUCinf, mean (SD)): 13700 ng·h/mL
AUC(0-t) ([2]; fasted with pantoprazole 40 mg QD, read-out: AUClast, geometric mean (Geo CV%)): 13000 ng·h/mL
AUC(0-t) ([2]; fasted with pantoprazole 40 mg QD, read-out: AUClast, mean (SD)): 13400 ng·h/mL
Cmax ([2]; fasted with pantoprazole 40 mg QD, read-out: Cmax, geometric mean (Geo CV%)): 1540 ng/mL
Cmax ([2]; fasted with pantoprazole 40 mg QD, read-out: Cmax, mean (SD)): 1580 ng/mL
Tmax ([3]; after a high-fat meal): 4 h
Tmax ([3]; fasted state): 2 h
AUC(0-inf) ([3]; fasted, N=13, linear mixed-effects model, read-out: AUCinf, GLSM): 13300 ng·h/mL
AUC(0-t) ([3]; fasted, N=13, linear mixed-effects model, read-out: AUClast, GLSM): 12900 ng·h/mL
Cmax ([3]; fasted, N=13, linear mixed-effects model, read-out: Cmax, GLSM): 1550 ng/mL
AUC(0-inf) ([3]; fasted, N=13, read-out: AUCinf, geometric mean (Geo CV%)): 13300 ng·h/mL
AUC(0-inf) ([3]; fasted, N=13, read-out: AUCinf, mean (SD)): 13800 ng·h/mL
AUC(0-t) ([3]; fasted, N=13, read-out: AUClast, geometric mean (Geo CV%)): 12800 ng·h/mL
AUC(0-t) ([3]; fasted, N=13, read-out: AUClast, mean (SD)): 13300 ng·h/mL
Cmax ([3]; fasted, N=13, read-out: Cmax, geometric mean (Geo CV%)): 1530 ng/mL
Cmax ([3]; fasted, N=13, read-out: Cmax, mean (SD)): 1600 ng/mL
AUC(0-inf) ([3]; fed (high-fat breakfast), N=13, linear mixed-effects model, read-out: AUCinf, GLSM): 18900 ng·h/mL
AUC(0-t) ([3]; fed (high-fat breakfast), N=13, linear mixed-effects model, read-out: AUClast, GLSM): 18700 ng·h/mL
Cmax ([3]; fed (high-fat breakfast), N=13, linear mixed-effects model, read-out: Cmax, GLSM): 2690 ng/mL
AUC(0-inf) ([3]; fed (high-fat breakfast), N=13, read-out: AUCinf, geometric mean (Geo CV%)): 18800 ng·h/mL
AUC(0-inf) ([3]; fed (high-fat breakfast), N=13, read-out: AUCinf, mean (SD)): 19600 ng·h/mL
AUC(0-t) ([3]; fed (high-fat breakfast), N=13, read-out: AUClast, geometric mean (Geo CV%)): 18600 ng·h/mL
AUC(0-t) ([3]; fed (high-fat breakfast), N=13, read-out: AUClast, mean (SD)): 19400 ng·h/mL
Cmax ([3]; fed (high-fat breakfast), N=13, read-out: Cmax, geometric mean (Geo CV%)): 2660 ng/mL
Cmax ([3]; fed (high-fat breakfast), N=13, read-out: Cmax, mean (SD)): 2780 ng/mL
delay of oral absorption with food [3]: about 2 hours
Structure (SMILES): CC(=O)N1CCC(COc2cc(F)c3c(=O)[nH]c(CSC4CCOCC4)nc3c2)CC1 [RBN‐3143]
effect of pantoprazole on RBN-3143 exposure/PK ([2]; pantoprazole 40 mg QD pre-treatment, RBN-3143 500 mg): did not impact; also recorded: no effect; also recorded: did not alter; also recorded: unaffected
